Values joined by “and” are separate entries in the source; they are usually repeats but may differ in a detail not shown here. Equal entries are not always repeated. Structures can show the parent of a compound that is named as a salt.

This is an account of results in publication PMC8509428, “The Phenoxyalkyltriazine Antagonists for 5-HT6 Receptor with Promising Procognitive and Pharmacokinetic Properties In Vivo in Search for a Novel Therapeutic Approach to Dementia Diseases” (International Journal of Molecular Sciences, 2021).

One experiment deals with rats. Particulars: i.p.; ref 10 (AG-1), 11 (AG-2), 12 (AN-1), 13 (AN-2); cited from earlier work.
The target in experiment [1] is human serotonin 5-HT6 receptor (Homo sapiens, UniProt P50406). The experiment can be described thus: Functional assay for 5-HT6 receptor (cAMP, 1321N1 cells).
The target in another experiment is 5-HT6R. Particulars: Figure 1; ref 10 (AG-1), 11 (AG-2), 12 (AN-1), 13 (AN-2); cited from earlier work.
The subject of experiment [2] is MK-801-induced memory deficits in rats. Briefly: Novel object recognition (NOR) test, MK-801-induced memory impairment. Format: in vivo, rat. The note with it: MK-801 0.1 mg/kg i.p. + vehicle; 0.1 mg/kg. How it is done: Five days before the experiment, the rats were transferred to the laboratory, labelled and, thereafter, left to acclimate to the new environment. The animals were handling every five days before experiments to minimize the stress reaction. The protocol was adapted from the original work. The test session comprising of two trials separated by an inter-trial interval (ITI) of 1 h was carried out after 2 days of the training session. During the first trial (familiarization, T1) two identical objects (A1 and A2) were presented in the opposite corners of the open field, approximately 10 cm from the walls. During the second trial (recognition, T2) one of the A objects was replaced by a novel object B, so that the animals were presented with the A = familiar and B = novel objects. Both trials lasted for 3 min and the animals were returned to their home cages after T1.
The objects used were the metal Coca-Cola cans and the glass jars filled with sand. […] The sequence of presentations and the location of the objects were randomly assigned to each rat. After each measurement, the floor was cleaned and dried.
The animals explored the objects by looking, licking, sniffing or touching the object but not when leaning against, standing or sitting on the object. Any rat exploring the two objects for less than 5 s within 3 min of T1 or T2 was eliminated from the study. The exploration time of the objects was measured by a blind experimenter. Based on the exploration time (E) of two objects during T2, the discrimination index (DI) was calculated according to the formula: DI = (EB − EA)/(EA + […]). Using this metric, scores approaching zero reflects no preference while positive values reflect a preference for the novel object and negative numbers reflect a preference for the familiar.
MK-801, used to attenuate learning, was administered at the dose of 0.1 mg/kg (i.p.) 30 min before the familiarization phase (T1), while investigated compounds were given 60 min before T1 session. In such scheme of experiment we could observe the impact of investigated compounds on the one type of rats’ memory—episodic memory and one phase of memory process—[…].
The total exploration time in T2 was used to express the influence of the treatment on the exploratory activity of the animals.

Experiment [3] shares this test system. Particulars: MK-801 0.1 mg/kg i.p. + vehicle; cited from earlier work.

Sequence of human serotonin 5-HT6 receptor (P50406 whole entry): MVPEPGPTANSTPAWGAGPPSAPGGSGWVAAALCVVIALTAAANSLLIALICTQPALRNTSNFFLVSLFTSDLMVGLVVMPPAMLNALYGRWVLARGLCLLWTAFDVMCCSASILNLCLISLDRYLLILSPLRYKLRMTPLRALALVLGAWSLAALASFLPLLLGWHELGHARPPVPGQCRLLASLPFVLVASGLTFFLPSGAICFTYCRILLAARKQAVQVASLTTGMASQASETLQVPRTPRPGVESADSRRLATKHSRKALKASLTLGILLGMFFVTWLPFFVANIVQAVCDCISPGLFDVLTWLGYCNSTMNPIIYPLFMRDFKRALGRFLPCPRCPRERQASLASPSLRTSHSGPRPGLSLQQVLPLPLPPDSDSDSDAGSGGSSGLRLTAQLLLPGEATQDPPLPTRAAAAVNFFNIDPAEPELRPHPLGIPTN

For the compound `CN(C)CCc1c[nH]c2ccc(NS(=O)(=O)c3c(Cl)nc4sccn34)cc12` [AG-1], the “dose with procognitive effect in the NOR test” value (shortened to “dose with procognitive effect”) in the experiment with rats is recorded as 2.5 mg/kg. For `COc1ccc(NS(=O)(=O)c2ccc(I)cc2)cc1N1CCN(C)CC1` [SB258585], the “5-HT6 Antagonist Mode Emax” value in experiment [1] (Table S1, % of reference antagonist (SB258585 10^-5 M)) is on record as 100%. For the same compound, in experiment [1] (± SEM, % of maximal agonist response (Serotonin 10^−5 M)), the “5-HT6R Agonist Mode Emax” value was 2.00 ± 0.50%. The Ki is a dissociation constant, usually derived from enzyme kinetics or from competition with a known ligand. On to `COc1ccc2c(c1)c(C1=CCNCC1)cn2S(=O)(=O)c1cncc2ccccc12` [AN-1], for which the “dose with procognitive effect” value in the experiment with rats was 1 mg/kg. Also, the Ki on 5-HT6R was 3 nM. As to `C[C@]12N[C@H](Cc3ccccc31)c1ccccc12` [MK-801, MK-801 maleate, reference compound], the “Total Exploratory Time in T2 Session” value in experiment [2] was 42.00 ± 3.13 s and 47.07 ± 3.89 s. For the same compound, the “Discrimination Index” value in experiment [3] is recorded as −0.07 ± 0.01. Regarding `NCCc1cn(S(=O)(=O)c2c(Cl)nc3sccn23)c2ccccc12` [AG-2], the “dose with procognitive effect” value in the experiment with rats is reported as 3 mg/kg. `CN(C)CCn1cnc2ccc(NS(=O)(=O)c3ccc4c(Cl)cccc4c3)cc21` [AN-2]: the “dose with procognitive effect” value in the experiment with rats was 1 mg/kg. The Ki on 5-HT6R was 9 nM.
